Several values for one entry are separate records, joined by “and”; a condition that tells them apart may be missing. Equal entries are not always repeated.
Assays:
[1] = target: Glycogen synthase kinase-3 alpha (Homo sapiens, UniProt P49840); experiment: TR-FRET Assay
Protocol: (§1) The assay was performed in a white, 384 well, low volume, flat bottom plate (Grenier). […] The kinase activity was quenched with 2 μL of 250 mM EDTA. A 10 μL volume of 40 nM Strepavidin-d2, 2 nM Tb2+-pSer641 antibody in TR-FRET Detection Buffer (Invitrogen) was then added.

[2] = target: Glycogen synthase kinase-3 beta (Homo sapiens, UniProt P49841); experiment: TR-FRET Assay
Protocol: as §1

Sequence of Glycogen synthase kinase-3 beta (P49841 whole entry): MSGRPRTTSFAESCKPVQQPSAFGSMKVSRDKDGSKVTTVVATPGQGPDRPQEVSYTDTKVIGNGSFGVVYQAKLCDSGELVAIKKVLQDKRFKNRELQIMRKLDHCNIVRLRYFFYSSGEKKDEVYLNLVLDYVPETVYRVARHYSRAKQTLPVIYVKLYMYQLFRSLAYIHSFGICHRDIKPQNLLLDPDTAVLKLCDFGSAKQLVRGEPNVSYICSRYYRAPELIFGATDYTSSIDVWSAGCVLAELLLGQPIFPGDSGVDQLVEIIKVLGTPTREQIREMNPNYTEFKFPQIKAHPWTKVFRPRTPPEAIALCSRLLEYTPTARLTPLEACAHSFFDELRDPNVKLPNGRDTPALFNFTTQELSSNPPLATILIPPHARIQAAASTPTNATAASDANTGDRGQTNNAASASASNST
Sequence of Glycogen synthase kinase-3 alpha (P49840 whole entry): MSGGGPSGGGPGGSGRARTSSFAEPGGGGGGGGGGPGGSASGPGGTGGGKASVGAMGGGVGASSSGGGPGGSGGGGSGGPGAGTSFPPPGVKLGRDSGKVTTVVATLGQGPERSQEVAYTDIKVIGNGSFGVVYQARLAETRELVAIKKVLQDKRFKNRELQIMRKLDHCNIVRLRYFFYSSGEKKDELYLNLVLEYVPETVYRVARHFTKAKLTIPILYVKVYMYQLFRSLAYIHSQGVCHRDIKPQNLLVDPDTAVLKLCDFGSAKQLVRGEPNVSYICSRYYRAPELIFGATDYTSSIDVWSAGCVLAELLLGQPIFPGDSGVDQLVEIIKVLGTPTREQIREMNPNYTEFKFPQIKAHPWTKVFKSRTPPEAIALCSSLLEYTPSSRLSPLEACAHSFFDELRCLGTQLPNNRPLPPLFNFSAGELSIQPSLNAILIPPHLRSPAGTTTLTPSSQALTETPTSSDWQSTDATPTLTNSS

SMILES	IC50 [1]	IC50 [2]
CC1N=NC2=C1C1(CN(S(=O)(=O)CC3CC3)C1)C1=C(CC(C)(C)CC1=O)N2 (stereo not given) [US20250313563, Compound 107828]	< 100 nM	100 to 1000 nM
CC(C)(C)CC1N=NC2=C1C1(CN(S(=O)(=O)CC3CC3)C1)C1=C(CC3(CCC3)CC1=O)N2 (stereo not given) [US20250313563, Compound 107829]	1000 to 5000 nM	100 to 1000 nM
CC(C)(C)CC1N=NC2=C1[C@](C)(c1cccc(S(=O)(=O)CC3CC3)c1)C1=C(CC(C)(C)NC1=O)N2 (stereo not given in full) [US20250313563, Compound 108005]	100 to 1000 nM	100 to 1000 nM
CC(C)(C)CC1N=NC2=C1[C@@](C)(c1cccc(S(=O)(=O)CC3CC3)c1)C1=C(CC(C)(C)NC1=O)N2 (stereo not given in full) [US20250313563, Compound 108006]	> 5000 nM	> 5000 nM
CC(C)(C)CC1N=NC2=C1[C@](C)(c1cccc(S(=O)(=O)N3CCCC3)c1)C1=C(CC(C)(C)NC1=O)N2 (stereo not given in full) [US20250313563, Compound 108791]	1000 to 5000 nM	100 to 1000 nM
CC(C)(C)CC1N=NC2=C1[C@@](C)(c1cccc(S(=O)(=O)N3CCCC3)c1)C1=C(CC(C)(C)NC1=O)N2 (stereo not given in full) [US20250313563, Compound 108794]	> 5000 nM	> 5000 nM
COc1cncc(F)c1-c1cccc([C@]2(C)C3=C(CC(C)(C)CC3=O)NC3=C2C(CC(C)(C)C)N=N3)c1 (stereo not given in full) [US20250313563, Compound 108954]	1000 to 5000 nM	100 to 1000 nM
COc1cncc(F)c1-c1cccc([C@@]2(C)C3=C(CC(C)(C)CC3=O)NC3=C2C(CC(C)(C)C)N=N3)c1 (stereo not given in full) [US20250313563, Compound 108956]	> 5000 nM	1000 to 5000 nM
CC1(C)CC(=O)C2=C(C1)NC1=C(C(C3CC3)N=N1)C21CN(S(=O)(=O)CC2CC2)C1 (stereo not given) [US20250313563, Compound 109152]	100 to 1000 nM	100 to 1000 nM
CC(C)(C)CC1N=NC2=C1[C@](C)(c1ccccc1)C1=C(CC(C)(C)NC1=O)N2 (stereo not given in full) [US20250313563, Compound 114531]	> 5000 nM	1000 to 5000 nM
CC1(C)CC2=C(C(=O)N1)[C@@](C)(c1cccc(S(C)(=O)=O)c1)C1=C(N=NC1C1CC1)N2 (stereo not given in full) [US20250313563, Compound 114679]	< 100 nM	100 to 1000 nM
CC(C)(C)CC1=C2C(N=N1)NC1=C(C(=O)CC(C)(C)C1)[C@@]21COc2ccccc21 (stereo not given in full) [US20250313563, Compound 117093]	1000 to 5000 nM	100 to 1000 nM
CN1C[C@]2(C3=C(CC(C)(C)CC3=O)NC3N=NC(C4CC(F)(F)C4)=C32)c2ccccc21 (stereo not given in full) [US20250313563, Compound 119047]	1000 to 5000 nM	100 to 1000 nM
CN1C[C@@]2(C3=C(CC(C)(C)CC3=O)NC3N=NC(C4CC(F)(F)C4)=C32)c2ccccc21 (stereo not given in full) [US20250313563, Compound 119048]	1000 to 5000 nM	100 to 1000 nM
CC(C)(C)CC1N=NC2=C1[C@](C)(c1cc(S(C)(=O)=O)ccc1F)C1=C(CC(C)(C)CC1=O)N2 (stereo not given in full) [US20250313563, Compound 125976]	1000 to 5000 nM	100 to 1000 nM
CN1C[C@]2(C3=C(CC(C)(C)CC3=O)NC3N=NC(CC(C)(C)C)=C32)c2ccccc21 (stereo not given in full) [US20250313563, Compound 125978]	1000 to 5000 nM	100 to 1000 nM
CN(C)S(=O)(=O)c1cccc([C@]2(C)C3=C(CC(C)(C)CC3=O)NC3=C2C(CC(C)(C)C)N=N3)c1 (stereo not given in full) [US20250313563, Compound 126012]	1000 to 5000 nM	100 to 1000 nM
Cn1cncc1-c1cccc([C@]2(C)C3=C(CC(C)(C)CC3=O)NC3=C2C(CC(C)(C)C)N=N3)c1 (stereo not given in full) [US20250313563, Compound 126014]	100 to 1000 nM	100 to 1000 nM
Cn1cncc1-c1cccc([C@@]2(C)C3=C(CC(C)(C)CC3=O)NC3=C2C(CC(C)(C)C)N=N3)c1 (stereo not given in full) [US20250313563, Compound 126015]	> 5000 nM	> 5000 nM
C[S@+]([O-])c1cccc([C@]2(C)C3=C(CC(C)(C)CC3=O)NC3=C2C(CC(C)(C)C)N=N3)c1 (stereo not given in full) [US20250313563, Compound 126190]	1000 to 5000 nM	100 to 1000 nM
C[S@@+]([O-])c1cccc([C@]2(C)C3=C(CC(C)(C)CC3=O)NC3=C2C(CC(C)(C)C)N=N3)c1 (stereo not given in full) [US20250313563, Compound 126191B:]	> 5000 nM	100 to 1000 nM
Cn1ccc(-c2cccc([C@]3(C)C4=C(CC(C)(C)CC4=O)NC4=C3C(CC(C)(C)C)N=N4)c2)n1 (stereo not given in full) [US20250313563, Compound 126366]	1000 to 5000 nM	100 to 1000 nM
Cn1cc(-c2cccc([C@@]3(C)C4=C(CC(C)(C)CC4=O)NC4=C3C(CC(C)(C)C)N=N4)c2)cn1 (stereo not given in full) [US20250313563, Compound 126367]	> 5000 nM	> 5000 nM
Cn1cc(-c2cccc([C@]3(C)C4=C(CC(C)(C)CC4=O)NC4=C3C(CC(C)(C)C)N=N4)c2)cn1 (stereo not given in full) [US20250313563, Compound 126393]	1000 to 5000 nM	100 to 1000 nM

SMILES	IC50 [1]	IC50 [2]
CC(C)(C)CC1N=NC2=C1[C@](C)(c1cccc(S(=O)(=O)C(F)(F)F)c1)C1=C(CC(C)(C)CC1=O)N2 (stereo not given in full) [US20250313563, Compound 126395]	1000 to 5000 nM	100 to 1000 nM
CC(C)(C)CC1N=NC2=C1[C@@](C)(c1cccc(S(=O)(=O)C(F)(F)F)c1)C1=C(CC(C)(C)CC1=O)N2 (stereo not given in full) [US20250313563, Compound 126396]	> 5000 nM	> 5000 nM
CC1(C)CC(=O)C2=C(C1)NC1N=NC(C3CC(F)(F)C3)=C1[C@@]21COc2ccccc21 (stereo not given in full) [US20250313563, Compound 127430]	1000 to 5000 nM	100 to 1000 nM
CC[C@]1(c2cccc(-c3ccnc(C)c3)c2)C2=CN=NC2NC2=C1C(=O)NC1(CCOCC1)C2 (stereo not given in full) [US20250313563, Compound 948524]	1000 to 5000 nM	
CC[C@]1(c2cccc(-c3ccnc(C)c3)c2)C2=C(CC(C)(C)NC2=O)NC2N=NC(C(F)(F)F)=C21 (stereo not given in full) [US20250313563, Compound 948773]	1000 to 5000 nM	
CCC1(c2cccc(OCC(F)F)c2)C2=CN=NC2NC2=C1C(=O)CC(C)(C)C2 (stereo not given) [US20250313563, Compound 948793]	< 100 nM and 100 to 1000 nM	
CC[C@]1(c2cccc(-c3cnn(C)c3C(F)(F)F)c2)C2=CN=NC2NC2=C1C(=O)NC(C)(C)C2 (stereo not given in full) [US20250313563, Compound 948826]	1000 to 5000 nM	
CC[C@]1(c2cccc(-c3cn(C)nc3C)c2)C2=CN=NC2NC2=C1C(=O)N(C)C(C)(C)C2 (stereo not given in full) [US20250313563, Compound 949008]	1000 to 5000 nM	
CC[C@]1(c2cccc(-c3cnn(CCOC)c3)c2)C2=CN=NC2NC2=C1C(=O)NC(C)(C)C2 (stereo not given in full) [US20250313563, Compound 949114]	1000 to 5000 nM	
CC[C@@]1(c2cccc(C(F)(F)C(F)(F)F)c2)C2=CN=NC2NC2=C1C(=O)CC(C)(C)C2 (stereo not given in full) [US20250313563, Compound 949268]	1000 to 5000 nM	
CCc1cccc([C@]2(CC)C3=CN=NC3NC3=C2C(=O)CC(C)(C)C3)c1 (stereo not given in full) [US20250313563, Compound 949391]	1000 to 5000 nM	
CC[C@]1(c2cccc(-c3cnn(C4CC4(F)F)c3)c2)C2=CN=NC2NC2=C1C(=O)NC(C)(C)C2 (stereo not given in full) [US20250313563, Compound 949393]	1000 to 5000 nM	
CC[C@]1(c2cccc(-c3cnn(C)c3F)c2)C2=CN=NC2NC2=C1C(=O)NC(C)(C)C2 (stereo not given in full) [US20250313563, Compound 949395]	1000 to 5000 nM	
CC[C@@]1(c2cccc(C3CCC3)c2)C2=CN=NC2NC2=C1C(=O)CC(C)(C)C2 (stereo not given in full) [US20250313563, Compound 949514]	1000 to 5000 nM	
CC[C@@]1(c2cccc(-c3ccncc3F)c2)C2=C(CC(C)(C)NC2=O)NC2N=NC(F)=C21 (stereo not given in full) [US20250313563, Compound 949651]	100 to 1000 nM	
CC[C@@]1(c2cccc(-c3ccnc(C)c3)c2)C2=C(CC(C)(C)NC2=O)NC2N=NC(C(F)F)=C21 (stereo not given in full) [US20250313563, Compound 950163]	< 100 nM and 100 to 1000 nM	
CC[C@]1(c2cccc(C(F)(F)F)c2)C2=CN=NC2NC2=C1C(=O)C[C@]1(CCN(C)C1=O)C2 (stereo not given in full) [US20250313563, Compound 950330]	100 to 1000 nM	
CC[C@@]1(c2cccc(C(F)(F)F)c2)C2=CN=NC2NC2=C1C(=O)C[C@@]1(CCNC1=O)C2 (stereo not given in full) [US20250313563, Compound 950331]	100 to 1000 nM	
CC[C@@]1(c2cccc(-c3c(C)cnn3C)c2)C2=CN=NC2NC2=C1C(=O)NC(C)(C)C2 (stereo not given in full) [US20250313563, Compound 952021]	< 100 nM and 100 to 1000 nM	
CC[C@@]1(c2cccc(N(C)c3ncccn3)c2)C2=C(N=NC2)NC2=C1C(=O)C(C)(C)C2 [US20250313563, Compound 952205]	1000 to 5000 nM	
CC[C@@]1(c2cccc(-c3ccnc4cccnc34)c2)C2=CN=NC2NC2=C1C(=O)NC(C)(C)C2 (stereo not given in full) [US20250313563, Compound 952560]	< 100 nM and 100 to 1000 nM	
CC[C@@]1(c2cccc(-c3ccnn3C)c2)C2=CN=NC2NC2=C1C(=O)CC(C)(C)[C@@H]2F (stereo not given in full) [US20250313563, Compound 957509]	100 to 1000 nM	
CC[C@@]1(c2cccc(-c3cnn(C)c3)c2)C2=CN=NC2NC2=C1C(=O)CC(C)(C)[C@H]2F (stereo not given in full) [US20250313563, Compound 957510]	1000 to 5000 nM	
CC[C@]1(c2cccc(-c3ccncc3)c2)C2=CN=NC2NC2=C1C(=O)CC(C)(C)[C@H]2F (stereo not given in full) [US20250313563, Compound 959342]	1000 to 5000 nM	
